Experimental data published in PubChem BioAssay (NCI).
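Interpolation was linear, between the two tested concentrations surrounding the appropriate level; five concentrations were tested over 48 hours in 96-well plates. GI50 is the concentration that inhibits growth by half. TGI: total growth inhibition.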

Key:
Test in all cases: NCI tumour cell line growth inhibition, 48 h
K-562 leukemia = system: K-562 leukemia
DLD-1 colon = system: DLD-1 colon
SW-620 colon = system: SW-620 colon
NCI-H460 lung = system: NCI-H460 lung
SNB-75 CNS = system: SNB-75 CNS
PC-3 prostate = system: PC-3 prostate
HOP-92 NSCLC = system: HOP-92 NSCLC
SN12C renal = system: SN12C renal
HL-60(TB) leukemia = system: HL-60(TB) leukemia
ACHN renal = system: ACHN renal
UO-31 renal = system: UO-31 renal
SF-268 CNS = system: SF-268 CNS
MALME-3M melanoma = system: MALME-3M melanoma
SK-MEL-28 melanoma = system: SK-MEL-28 melanoma
EKVX NSCLC = system: EKVX NSCLC
P388/ADR leukemia = system: P388/ADR leukemia
NCI-H226 lung = system: NCI-H226 lung
XF 498 CNS = system: XF 498 CNS
U251 CNS = system: U251 CNS
SK-MEL-5 melanoma = system: SK-MEL-5 melanoma
MCF7 breast = system: MCF7 breast
HCT-116 colon = system: HCT-116 colon
SK-OV-3 ovarian = system: SK-OV-3 ovarian
HS 578T breast = system: HS 578T breast
MDA-MB-231 breast = system: MDA-MB-231 breast
LOX IMVI melanoma = system: LOX IMVI melanoma
A498 renal = system: A498 renal
IGROV1 ovarian = system: IGROV1 ovarian
OVCAR-4 ovarian = system: OVCAR-4 ovarian
KM12 colon = system: KM12 colon
NCI-H522 lung = system: NCI-H522 lung
786-0 renal = system: 786-0 renal
SN12K1 renal = system: SN12K1 renal
OVCAR-8 ovarian = system: OVCAR-8 ovarian
NCI/ADR-RES ovarian = system: NCI/ADR-RES ovarian
HT29 colon = system: HT29 colon
TK-10 renal = system: TK-10 renal
SNB-19 CNS = system: SNB-19 CNS
CAKI-1 renal = system: CAKI-1 renal
UACC-257 melanoma = system: UACC-257 melanoma
MDA-MB-435 = system: MDA-MB-435
COLO 205 colon = system: COLO 205 colon
SNB-78 CNS = system: SNB-78 CNS
UACC-62 melanoma = system: UACC-62 melanoma
DMS 273 small cell lung = system: DMS 273 small cell lung
HOP-18 NSCLC = system: HOP-18 NSCLC
OVCAR-5 ovarian = system: OVCAR-5 ovarian
M19-MEL melanoma = system: M19-MEL melanoma
A549 NSCLC = system: A549 NSCLC
HCC-2998 colon = system: HCC-2998 colon
P388 leukemia = system: P388 leukemia
CCRF-CEM leukemia = system: CCRF-CEM leukemia
MOLT-4 leukemia = system: MOLT-4 leukemia
NCI-H23 lung = system: NCI-H23 lung
T-47D breast = system: T-47D breast
HOP-62 NSCLC = system: HOP-62 NSCLC
KM20L2 colon = system: KM20L2 colon
DU-145 prostate = system: DU-145 prostate
RPMI-8226 leukemia = system: RPMI-8226 leukemia
M14 melanoma = system: M14 melanoma
OVCAR-3 ovarian = system: OVCAR-3 ovarian
SR leukemia = system: SR leukemia
SF-539 CNS = system: SF-539 CNS
SF-295 CNS = system: SF-295 CNS
RXF 393 renal = system: RXF 393 renal
MDA-N = system: MDA-N
BT-549 breast = system: BT-549 breast
SK-MEL-2 melanoma = system: SK-MEL-2 melanoma
HCT-15 colon = system: HCT-15 colon
DMS 114 small cell lung = system: DMS 114 small cell lung

Compound COc1cc([C@@H]2c3cc4c(cc3[C@@H](OC3OC5CO[C@@H](c6cccs6)OC5C(O)C3O)[C@H]3COC(=O)[C@H]23)OCO4)cc(OC)c1O (some centres not stated) has a TGI (K-562 leukemia) of 17.2 µM, a TGI (DLD-1 colon) of 11.3 µM and a TGI (SW-620 colon) of 9.5 µM. It also gave a TGI (NCI-H460 lung) of 2.59 µM, a TGI (SNB-75 CNS) of 4 µM and a TGI (PC-3 prostate) of 21.9 µM. The TGI (HOP-92 NSCLC) was 1.76 µM, the TGI (SN12C renal) was 2.33 µM and the TGI (HL-60(TB) leukemia) was 1.35 µM. The TGI (ACHN renal) was 2.12 µM, the TGI (UO-31 renal) was 12.1 µM and the TGI (SF-268 CNS) was 7.24 µM. The TGI (MALME-3M melanoma) was 4.29 µM, the TGI (SK-MEL-28 melanoma) was 12.4 µM and the TGI (EKVX NSCLC) was 4.33 µM. For the same compound, the TGI (P388/ADR leukemia) was 14.3 µM, the TGI (NCI-H226 lung) was 3.05 µM and the TGI (XF 498 CNS) was 3.73 µM. For the same compound, the TGI (U251 CNS) was 2.47 µM, the TGI (SK-MEL-5 melanoma) was 3.31 µM and the TGI (MCF7 breast) was 15.6 µM. The TGI (HCT-116 colon) was 10.7 µM, the TGI (SK-OV-3 ovarian) was 1.93 µM and the TGI (HS 578T breast) was 4.71 µM. The TGI (MDA-MB-231 breast) was 3.81 µM, the TGI (LOX IMVI melanoma) was 4.4 µM and the TGI (A498 renal) was 3.51 µM. The TGI (IGROV1 ovarian) was 13.3 µM, the TGI (OVCAR-4 ovarian) was 16.7 µM and the TGI (KM12 colon) was 5.06 µM. For the same compound, the TGI (NCI-H522 lung) was 4.16 µM, the TGI (786-0 renal) was 1.19 µM and the TGI (SN12K1 renal) was 1.84 µM. For the same compound, the TGI (OVCAR-8 ovarian) was 3.5 µM, the TGI (NCI/ADR-RES ovarian) was 25 µM and the TGI (HT29 colon) was 11.7 µM. For the same compound, the TGI (TK-10 renal) was 6.89 µM, the TGI (SNB-19 CNS) was 9.24 µM and the TGI (CAKI-1 renal) was 2 µM. It also gave a TGI (UACC-257 melanoma) of 12.3 µM, a TGI (MDA-MB-435) of 10.7 µM and a TGI (COLO 205 colon) of 5.06 µM. It also gave a TGI (SNB-78 CNS) of 10.4 µM, a TGI (UACC-62 melanoma) of 2.71 µM and a TGI (DMS 273 small cell lung) of 3.03 µM. It also gave a TGI (HOP-18 NSCLC) of 14.2 µM, a TGI (OVCAR-5 ovarian) of 11.7 µM and a TGI (M19-MEL melanoma) of 12.4 µM. It also gave a TGI (A549 NSCLC) of 4.17 µM, a TGI (HCC-2998 colon) of 3.47 µM and a TGI (P388 leukemia) of 1.93 µM. It also gave a TGI (CCRF-CEM leukemia) of 3.89 µM, a GI50 (MOLT-4 leukemia) of 0.0161 µM and a TGI (MOLT-4 leukemia) of 0.473 µM. For the same compound, the TGI (NCI-H23 lung) was 4.44 µM, the TGI (T-47D breast) was 4.21 µM and the TGI (HOP-62 NSCLC) was 0.866 µM. It also gave a TGI (KM20L2 colon) of 14.6 µM, a TGI (DU-145 prostate) of 2.12 µM and a TGI (RPMI-8226 leukemia) of 3.35 µM. For the same compound, the TGI (M14 melanoma) was 3.71 µM, the TGI (OVCAR-3 ovarian) was 6.89 µM and the TGI (SR leukemia) was 3.28 µM. For the same compound, the TGI (SF-539 CNS) was 2.2 µM, the TGI (SF-295 CNS) was 1.2 µM and the TGI (RXF 393 renal) was 3.38 µM. For the same compound, the TGI (MDA-N) was 10.4 µM, the TGI (BT-549 breast) was 2.53 µM and the TGI (SK-MEL-2 melanoma) was 4.37 µM. It also gave a TGI (HCT-15 colon) of 11.3 µM.

For CCCCCCCCCCCCCCCCCCOP(=O)([O-])OCC[N+](C)(C)C, the TGI (K-562 leukemia) was 10.4 µM, the TGI (DLD-1 colon) was 16.9 µM and the TGI (SW-620 colon) was 6.66 µM. For the same compound, the TGI (NCI-H460 lung) was 1.94 µM, the TGI (SNB-75 CNS) was 1.7 µM and the TGI (HOP-92 NSCLC) was 1.07 µM. For the same compound, the TGI (SN12C renal) was 1.53 µM, the TGI (HL-60(TB) leukemia) was 5.83 µM and the TGI (ACHN renal) was 0.37 µM. It also gave a TGI (UO-31 renal) of 36.1 µM, a TGI (SF-268 CNS) of 2.21 µM and a TGI (DMS 114 small cell lung) of 26.8 µM. It also gave a TGI (MALME-3M melanoma) of 3.38 µM, a TGI (SK-MEL-28 melanoma) of 42.2 µM and a TGI (EKVX NSCLC) of 8.29 µM. The TGI (P388/ADR leukemia) was 27.3 µM, the TGI (NCI-H226 lung) was 3.31 µM and the TGI (XF 498 CNS) was 25.4 µM. For the same compound, the TGI (U251 CNS) was 4.71 µM, the TGI (SK-MEL-5 melanoma) was 17.5 µM and the TGI (MCF7 breast) was 3.11 µM. For the same compound, the TGI (HCT-116 colon) was 3.12 µM, the TGI (SK-OV-3 ovarian) was 43.4 µM and the TGI (MDA-MB-231 breast) was 3.5 µM. The TGI (LOX IMVI melanoma) was 1.96 µM, the TGI (A498 renal) was > 46.4 µM and the TGI (IGROV1 ovarian) was 26.1 µM. For the same compound, the TGI (OVCAR-4 ovarian) was 1.29 µM, the TGI (KM12 colon) was 0.632 µM and the TGI (NCI-H522 lung) was 1.46 µM. It also gave a TGI (786-0 renal) of 0.169 µM, a TGI (SN12K1 renal) of 26.9 µM and a TGI (OVCAR-8 ovarian) of 2.39 µM. For the same compound, the TGI (NCI/ADR-RES ovarian) was 5.22 µM, the TGI (HT29 colon) was 2.2 µM and the TGI (SNB-19 CNS) was 47.9 µM. It also gave a TGI (CAKI-1 renal) of 22.8 µM, a TGI (UACC-257 melanoma) of 25.6 µM and a TGI (COLO 205 colon) of 0.5 µM. It also gave a TGI (SNB-78 CNS) of 15.8 µM, a TGI (UACC-62 melanoma) of 20.8 µM and a TGI (DMS 273 small cell lung) of 13.4 µM. It also gave a TGI (HOP-18 NSCLC) of 30.1 µM, a TGI (OVCAR-5 ovarian) of 6.82 µM and a TGI (M19-MEL melanoma) of 16.3 µM. For the same compound, the TGI (A549 NSCLC) was 5.13 µM, the TGI (HCC-2998 colon) was 7.01 µM and the TGI (P388 leukemia) was 15.1 µM. It also gave a TGI (CCRF-CEM leukemia) of 2.52 µM, a TGI (MOLT-4 leukemia) of 5.89 µM and a TGI (NCI-H23 lung) of 30.4 µM. It also gave a TGI (HOP-62 NSCLC) of 1.38 µM, a TGI (KM20L2 colon) of 12.5 µM and a TGI (RPMI-8226 leukemia) of 2.64 µM. The TGI (OVCAR-3 ovarian) was 2.79 µM, the TGI (SR leukemia) was > 100 µM and the TGI (SF-539 CNS) was 2.59 µM. The TGI (SF-295 CNS) was 3.49 µM, the TGI (RXF 393 renal) was 23.1 µM and the TGI (BT-549 breast) was 5.82 µM. It also gave a TGI (SK-MEL-2 melanoma) of 3.11 µM and a TGI (HCT-15 colon) of 3.24 µM.
